Patent US4410459A, “Process for preparation of cytostatic compounds” (priority 1980, dated 1983)
Where two headings read alike, the source gives them in different places.

Tests used:
[1] = Acute toxicity in mice (i.p., Lichfield and Wilcoxon), with paralytic side effect; assay type: in vivo, male Swiss mice; conditions: for LD50: mouse, in vivo, ip; for Paralytic side effect: symbols 0 / + not defined
Procedure: The acute toxicity of the compounds according to the invention was tested on male Swiss mice weighing 27 to 31 g. The tests were carried out on groups of six mice. Test compounds were administered intraperitoneally, as injectable solutions prepared with physiological saline solution and optionally one drop of Tween 80.

[2] = system: P 388 mouse leukaemia; assay: P 388 leukaemia test (life span of i.p. transplanted mice); assay type: in vivo, BDF hybrid mice
Procedure: (§1) The effect of the new compounds on intraperitoneally transplantable tumors (P 388 mouse leukaemia and NK/Ly ascites lymphoma) is described hereinbelow. The P 388 leukaemia test was performed on BDF hybrid mice. The tests were carried out on groups of six mice and 10^6 tumor cells/animal were transplanted intraperitoneally. Administration of the test compounds was started in the 24th hour after transplantation. Treatment was performed intraperitoneally and the body weight and state of animals was controlled every day. The effect obtained on the treated animals is expressed in % of the mean length of life of the control group, given in days.

[3] = system: intraperitoneally transplantable tumors (P 388 mouse leukaemia and NK/Ly ascites lymphoma); assay: Similar transplanted tumor tests with N-desmethyl-N-(methoxymethyl)-20'-desoxy-leurosidine (life span); assay type: in vivo; conditions: for Treated/Control: mean length of life
Procedure: as §1
(§2) Into groups of ten Swiss-H/Riop outbred mice from our own breed 5×10^6 ascites tumour cells were transplanted intraperitoneally. In the 24th hour after transplantation treatment was started and the compounds were administered daily, altogether five times. The mean length of life of the control group amounted to 15.7 days.
Similar tests were performed with N-desmethyl-N-(methoxymethyl)-20'-desoxy-leurosidine. In these tests the doses and the number of treatments were varied.

[4] = system: NK/Ly ascites lymphoma; assay: NK/Ly ascites tumour test (survival and tumor-free animals); assay type: in vivo, Swiss-H/Riop outbred mice
Procedure: as §1, §2

[5] = system: HeLa culture; assay: Metaphase block stages in stained tissue cultures; assay type: cell-based
Procedure: The test compounds were dissolved in the tissue cultures (HeLa culture) in concentrations ranging from the threshold dose of 1×10^-3 μg./ml. up to 100 μg./ml. In 24-hour cultures, by in vivo microscopic evaluation of the metaphase-arresting affect the following results were obtained.
Under similar conditions but using stained tissue cultures slight differences could be observed which can be classified as follows:
The first stage (minimal effective dose) is characterized by an increased ratio of blocked mitoses. A part is abnormal mitoses, for example three-group mitosis or polar chromosomes also occur. Generally the anaphases have already disappeared.
In the second stage a strong metaphase blocking is observed and practically there is no regulare mitosis present. Chromosomes are in the form of a loose glomus. The proportion of interphase cells is low.
In the third stage the chromosomas are aggregated in a mass in the middle of the cell. This state is called picnomitosis of "Ball-Metaphase".
In the fourth stage already the interphase cells are influenced. More particularly, the number of the blocked cells is decreased since they are not able to take part in mitosis. The cytoplasm of the cells (in interphase) is extended, its border is irregular, "fringy", the cells frequently have an elongated, fibroplast-like shape.
Finally, in the fifth stage the cytoplasm is filled in by a fine, reticular structure and the interphase cell has unambiguously been killed by the treatment.

[6] = Mus musculus, P388, ip, mean length of life, 8 × 2.0 mg./kg. i.p., read-out: Treated/Control
[7] = Mus musculus, P388, ip, mean length of life, 8 × 4.0 mg./kg. i.p., read-out: Treated/Control
[8] = Mus musculus, P388, ip, mean length of life, 8 × 8.0 mg./kg. i.p., read-out: Treated/Control
[9] = Mus musculus, P388, ip, mean length of life, 8 × 0.4 mg./kg. i.p., read-out: Treated/Control
[10] = Mus musculus, P388, ip, mean length of life, 8 × 1.0 mg./kg. i.p., read-out: Treated/Control

Row | SMILES | LD50 [1] [mg/kg] | Paralytic side effect [1] | Mean length of life, treated ([2]; 8 × 4.0 mg./kg. i.p.) [days] | Mean length of life, treated ([2]; 8 × 8.0 mg./kg. i.p.) [days] | response vs control in vivo at 4 mg/kg [2, 7] [%] | response vs control in vivo at 8 mg/kg [2, 8] [%] | Mean length of life, treated ([2]; 8 × 0.4 mg./kg. i.p.) [days] | response vs control in vivo at 0.4 mg/kg [2, 9] [%] | other results
1 | CCOCN1c2cc(OC)c(C3(C(=O)OC)CC4CN(CCc5c3[nH]c3ccccc53)CC(O)(CC)C4)cc2C23CCN4CC=CC(CC)(C(OC(C)=O)C(O)(C(=O)OC)C12)C43 (stereo not shown) [N-Desmethyl-N-(ethoxymethyl)-vinblastine] | ~110 | 0 | 18.5 | 20.5 | 167 | 208 | – | – | Mean length of life, treated ([2]; 8 × 2.0 mg./kg. i.p.): 20.3 days; response vs control in vivo at 2 mg/kg [2, 6]: 193%
2 | CCC1CC2CN(CCc3c([nH]c4ccccc34)C(C(=O)OC)(c3cc4c(cc3OC)N(COC)C3C(O)(C(=O)OC)C(OC(C)=O)C5(CC)C=CCN6CCC43C65)C2)C1 (stereo not shown) [N-Desmethyl-N-(methoxymethyl)-20'-desoxyleurosidine] | – | – | – | – | – | – | – | – | Mean length of life, treated ([3]; 4 × 7 mg./kg. i.p.): 17.1 days; Mean length of life, treated ([3]; 4 × 8 mg./kg. i.p.): 21.8 days; Mean length of life, treated ([3]; 8 × 0.5 mg./kg. i.p.): 15.3 days; Mean length of life, treated ([3]; 8 × 1 mg./kg. i.p.): 21.7 days; Mean length of life, treated ([3]; 8 × 4 mg./kg. i.p.): 20.8 days; Treated/Control ([3]; 4 × 7 mg./kg. i.p.): 142%; Treated/Control ([3]; 4 × 8 mg./kg. i.p.): 180%; Treated/Control ([3]; 8 × 0.5 mg./kg. i.p.): 126%; Treated/Control ([3]; 8 × 1 mg./kg. i.p.): 178%; Treated/Control ([3]; 8 × 4 mg./kg. i.p.): 180%
3 | CC[C@]1(O)C[C@@H]2CN(CCc3c([nH]c4ccccc34)[C@@](C(=O)OC)(c3cc4c(cc3OC)N(C)[C@H]3[C@@](O)(C(=O)OC)[C@H](OC(C)=O)[C@]5(CC)C=CCN6CC[C@]43[C@@H]65)C2)C1 [vinblastine, reference compound] | – | 0 | – | – | – | – | – | – | –
4 | C=CCOCN1c2cc(OC)c(C3(C(=O)OC)CC4CN(CCc5c3[nH]c3ccccc53)CC(O)(CC)C4)cc2C23CCN4CC=CC(CC)(C(OC(C)=O)C(O)(C(=O)OC)C12)C43 (stereo not shown) [N-Desmethyl-N-(allyloxymethyl)-vinblastine] | ~45 | 0 | 21.0 | 20.5 | 200 | 207 | 15.0 | 145 | alive ([4]; 5 × 4.0 mg./kg. i.p.): 10/10; on the 25th day tumor-free ([4]; 5 × 4.0 mg./kg. i.p.): 10/10; on the 30th day tumor-free ([4]; 5 × 4.0 mg./kg. i.p.): 6/10
5 | CC[C@]1(O)C[C@@H]2CN(CCc3c([nH]c4ccccc34)[C@@](C(=O)OC)(c3cc4c(cc3OC)N(C)[C@H]3[C@@](O)(C(N)=O)[C@H](O)[C@]5(CC)C=CCN6CC[C@]43[C@@H]65)C2)C1 [vindesine, reference compound] | 4 | – | – | – | – | – | – | – | –
6 | CCC1(O)CC2CN(CCc3c([nH]c4ccccc34)C(C(=O)OC)(c3cc4c(cc3OC)N(COC)C3C(O)(C(=O)OC)C(OC(C)=O)C5(CC)C=CCN6CCC43C65)C2)C1 (stereo not shown) [N-Desmethyl-N-(methoxymethyl)-vinblastine] | ~100 | 0 | – | – | 171 | – | – | – | Mean length of life, treated ([2]; 8 × 1.0 mg./kg. i.p.): 12.7 days; Mean length of life, treated ([2]; 8 × 6.0 mg./kg. i.p.): 19.2 days; response vs control in vivo at 1 mg/kg [2, 10]: 122%; response vs control in vivo at 6 mg/kg ([2]; Mus musculus, P388, ip, mean length of life, 8 × 6.0 mg./kg. i.p., read-out: Treated/Control): 182%
7 | CCCCCCCOCN1c2cc(OC)c(C3(C(=O)OC)CC4CN(CCc5c3[nH]c3ccccc53)CC(O)(CC)C4)cc2C23CCN4CC=CC(CC)(C(OC(C)=O)C(O)(C(=O)OC)C12)C43 (stereo not shown) [N-Desmethyl-N-(heptoxymethyl)-vinblastine] | ~60 | 0 | 18.7 | 21.3 | 181 | 247 | 14.3 | 139 | relative effectiveness [5]: most effective compound; alive ([4]; 5 × 6.0 mg./kg. i.p.): 10/10; on the 25th day tumor-free ([4]; 5 × 6.0 mg./kg. i.p.): 7/10; on the 30th day tumor-free ([4]; 5 × 6.0 mg./kg. i.p.): 3/10
8 | CCC1(O)CC2CN(CCc3c([nH]c4ccccc34)C(C(=O)OC)(c3cc4c(cc3OC)N(COC3CCCCC3)C3C(O)(C(=O)OC)C(OC(C)=O)C5(CC)C=CCN6CCC43C65)C2)C1 (stereo not shown) [N-Desmethyl-N-(cyclohexaloxymethyl)vinblastine] | ~60 | 0 | 18.8 | 19.3 | 181 | 197 | 13.1 | 127 | alive ([4]; 5 × 4.0 mg./kg. i.p.): 10/10; on the 25th day tumor-free ([4]; 5 × 4.0 mg./kg. i.p.): 5/10; on the 30th day tumor-free ([4]; 5 × 4.0 mg./kg. i.p.): 3/10
9 | CCCOCN1c2cc(OC)c(C3(C(=O)OC)CC4CN(CCc5c3[nH]c3ccccc53)CC(O)(CC)C4)cc2C23CCN4CC=CC(CC)(C(OC(C)=O)C(O)(C(=O)OC)C12)C43 (stereo not shown) [N-Desmethyl-N-(propoxymethyl)-vinblastine] | ~80 | 0 | 19.0 | 20.2 | 171 | 205 | – | – | Mean length of life, treated ([2]; 8 × 1.0 mg./kg. i.p.): 15.0 days; Mean length of life, treated ([2]; 8 × 2.0 mg./kg. i.p.): 20.8 days; Mean length of life, treated ([2]; 8 × 10.0 mg./kg. i.p.): 14.7 days; Toxicity ([2]; 8 × 10.0 mg./kg. i.p., footnote: The animals died tumorfree): toxic; response vs control in vivo at 1 mg/kg [2, 10]: 145%; response vs control in vivo at 2 mg/kg [2, 6]: 198%; response vs control in vivo at 10 mg/kg ([2]; Mus musculus, P388, ip, mean length of life, 8 × 10.0 mg./kg. i.p., read-out: Treated/Control): 142%
10 | CCC1(O)CC2CN(CCc3c([nH]c4ccccc34)C(C(=O)OC)(c3cc4c(cc3OC)N(COCc3ccccc3)C3C(O)(C(=O)OC)C(OC(C)=O)C5(CC)C=CCN6CCC43C65)C2)C1 (stereo not shown) [N-Desmethyl-N-(benzyloxymethyl)-vinblastine] | ~70 | 0 | 18.3 | – | 178 | – | 13.0 | 126 | Mean length of life, treated ([2]; 5 × 8.0 mg./kg. i.p.): 19.2 days; response vs control in vivo at 8 mg/kg ([2]; Mus musculus, P388, ip, mean length of life, 5 × 8.0 mg./kg. i.p., read-out: Treated/Control): 195%; relative effectiveness [5]: weakest effect; effect on mitosis at lowest dose ([5]; 0.001 μg./ml.): minimum block with several deformed mitoses but without anaphases; effect on mitosis at 0.01 μg./ml. ([5]; 0.01 μg./ml.): the block was moderate
